Marks after values point to notes of the source that are not given here.
Experiments:
[1] = tested on: PD-LID rat model (6-OHDA-lesioned rats); experiment: Dyskinesia-like symptoms (AIMs score) after transdermal tandospirone tape agent in PD-LID rat model; format: in vivo
From the text: A rat striatum dopaminergic denervation model using topical administration of 6-hydroxydopamine (hereinafter, also referred to as “6-OHDA”) to one side of the brain is known as a typical experimental model for PD-LID (rats treated on one side with 6-OHDA (6-OHDA-lesioned rats)). Dyskinesia-like abnormal involuntary movements (AIMs) manifest in said model with repeated administration of levodopa (Lundblad et al., European Journal of Neuroscience, 2002, 15: 120-132, Winkler et al., Neurobiology of Disease, 2002, 10: 165-186).
Wistar male rats (12-week old, Japan SLC, Inc.) were used for the preparation of animal models. Desipramine hydrochloride (25 mg/kg; Wako Pure Chemical) was intraperitoneally administered. After 30 minutes from the administration, the rats were subjected to isoflurane inhalational anesthetic using a general anesthesia apparatus for experimental animals. Under isoflurane anesthesia, the rats were immobilized to a brain stereotaxic instrument. The skin on the head was incised with a surgical scalpel to expose the skull. The coordinates of the bregma used as the origin (AP: 0, ML: 0, DV: 0) was determined, and the coordinates of the right medial forebrain bundle (AP: −4.4 mm, ML: 1.5 mm, DV: 7.8 mm from bregma) were measured. After inserting an injection tube for administration at the measured coordinates, 6-OHDA (9 μg/4 μL; Sigma-Aldrich) inducing dopaminergic denervation was topically injected. After 2 weeks from surgery, apomorphine hydrochloride hemihydrate (0.5 mg/kg; Wako Pure Chemical) was subcutaneously administered, and the rotation movement to the opposite side from the 6-OHDA injected site was observed. Rats with 7 rotations or more per minute were used as rats treated on one side with 6-OHDA.
To make a PD-LID model, a mixture of levodopa methyl ester hydrochloride (6 mg/kg; Sigma-Aldrich) dissolved in saline and benserazide hydrochloride (15 mg/kg; Sigma-Aldrich) (hereinafter, also referred to as “levodopa containing solution”) was intraperitoneally administered once daily to 6-OHDA-lesioned rats. The levodopa containing solution was repeated administered for 3 weeks or longer to observe and evaluate the behavior. The behavior was observed and evaluated in a transparent acrylic cage for 1 minute every 20 minutes after 20 minutes from the intraperitoneal administration of the levodopa containing solution, up until after 3 hours from administration. […] The sum of the scores for Limb AIMs, Axial AIMs, and Orolingual AIMs in 3 hours was used as the total AIMs score. Individuals with a total AIMs score of less than 10 were excluded from the test as not manifesting a dyskinesia-like symptom. […] The rats were assigned to each dosing group by using the 3 hour AIMs score, Locomotive behavior score, and rat body weight as indicators, which were used for evaluation of drugs.
When evaluating a tape agent, the hair on the abdominal region of rats was shaved before the evaluation date. […] After 4 hours from application, a levodopa containing solution was intraperitoneally administered to observe and evaluate the behavior. Individuals with 50% or more of the tape agent coming off during the test were excluded from analysis.
(§1) After 4 hours from application, a levodopa containing solution was intraperitoneally administered to observe and evaluate the behavior. Individuals with 50% or more of the tape agent coming off during the test were excluded from analysis.
When evaluating dyskinesia-like symptoms, the sum of the Limb AIMs, Axial AIMs, and Orolingual AIMs at each evaluation point was used as the AIMs score.

[2] = Plasma tandospirone concentration measured after observation and evaluation of behavior in PD-LID rats; format: in vivo, rat; details: rat, plasma
Method: 50 μL of rat plasma sample was fractionated into a polypropylene microtube. 50 μL of methanol (50 μL of standard solution for calibration curve sample) and 200 μL of internal standard solution (Bezafibrate methanol solution: 200 nmol/L, 200 μL of methanol for blank sample) are added and stirred for about 10 seconds with a mixer. This is centrifuged (4° C., 4500 rpm, 10 min), and then the supernatant is subjected to vacuum filtration using a filter (FastRemover MF 0.2 μm). 70 μL of aqueous 10 mmol/L ammonium acetate solution is added to 70 μL of the resulting filtrate and stirred for about 10 seconds with a mixer to prepare a measurement sample.
When evaluating a tape agent, the hair on the abdominal region of rats was shaved before the evaluation date. The tape agent of formulation 2 was applied to the abdominal regions of rats on the evaluation date at 60 cm^2/kg (37 mg/kg). After 4 hours from application, a levodopa containing solution was intraperitoneally administered to observe and evaluate the behavior. Individuals with 50% or more of the tape agent coming off during the test were excluded from analysis.
as §1
After 4 hours, a levodopa containing solution was administered to observe and evaluate the behavior.
After 4 hours, a levodopa containing solution was administered to observe and evaluate the behavior (day 0 of implanting the pump). Repeat administration of once daily levodopa containing solution was continued thereafter. The behavior was also observed and evaluated on day 13 of implanting the pump.

[3] = tested on: PD-LID rat model (6-OHDA-lesioned rats); experiment: Oral administration of tandospirone citrate on dyskinesia-like symptoms in PD-LID rat model; format: in vivo
Method: The behavior was observed and evaluated using the same method as Example 2. […] After 5 minutes, a levodopa containing solution was intraperitoneally administered, and the behavior was observed and evaluated. The results in the drawings are indicated in terms of mean value±standard error. The test results were statistically analyzed by comparison with the solvent administration group by Steel test using the total AIMs score in 3 hours and total AIMs score in 100 to 180 minutes as parameters. * indicates p<0.05, meaning that there is a significant difference. The dosage was described as a numerical value converted in terms of tandospirone free form.

dopamine 2 receptors = dopamine 2 receptors (Homo sapiens, UniProt P14416); details: in vitro; cited from earlier work
dopamine 2 receptors, sequence (P14416 whole entry): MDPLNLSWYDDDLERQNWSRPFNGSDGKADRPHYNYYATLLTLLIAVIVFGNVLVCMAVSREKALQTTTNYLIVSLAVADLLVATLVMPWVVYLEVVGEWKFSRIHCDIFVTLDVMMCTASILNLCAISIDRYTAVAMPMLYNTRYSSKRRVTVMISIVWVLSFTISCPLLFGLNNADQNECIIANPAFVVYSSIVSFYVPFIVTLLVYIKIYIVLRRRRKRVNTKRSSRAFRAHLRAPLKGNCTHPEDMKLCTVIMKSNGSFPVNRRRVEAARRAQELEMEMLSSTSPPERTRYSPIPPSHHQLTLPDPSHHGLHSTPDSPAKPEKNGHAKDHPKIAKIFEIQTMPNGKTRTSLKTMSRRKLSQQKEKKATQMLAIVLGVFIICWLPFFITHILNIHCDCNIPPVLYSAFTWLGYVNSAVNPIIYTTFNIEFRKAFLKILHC

[4] = transdermal condition 1, 37 mg/kg, no stripping
[5] = transdermal condition 2, 45 mg/kg, with stripping
[6] = oral 20 mg/kg as free form, FIGS. 7A-7C
[7] = oral 20 mg/kg as free form, FIGS. 8A-8L

In the case of O=C1[C@@H]2[C@H]3CC[C@H](C3)[C@@H]2C(=O)N1CCCCN1CCN(c2ncccn2)CC1 [tandospirone, (1R,2S,3R,4S)—N-[4-{4-(pyrimidine-2-yl)piperadine-1-yl}butyl]-2,3-bicyclo[2.2.1]heptanedicarboximide], the “difference (decrease) in total AIMs score in 3 hours, placebo tape agent minus tandospirone” value ([1]; transdermal condition 1 (no stripping), 37 mg/kg) was 17.7**, the “(ii) Indicator of rebound symptom of dyskinesia, in words” value [1, 4] was “No effect” and the “(ii) Indicator of rebound symptom of dyskinesia: difference in total AIMs score in 100 to 180 minutes (placebo minus tandospirone)” value [1, 4] was −0.1. The “difference (decrease) in total AIMs score in 3 hours, placebo tape agent minus tandospirone” value ([1]; transdermal condition 2 (with stripping), 45 mg/kg) was 27.1**, the “(ii) Indicator of rebound symptom of dyskinesia, in words” value [1, 5] was “No effect” and the “(ii) Indicator of rebound symptom of dyskinesia: difference in total AIMs score in 100 to 180 minutes (placebo minus tandospirone)” value [1, 5] was 0.9. It also gave a concentration at 7 h ([2]; continuous subcutaneous infusion 0.05 mg/kg/hour) of 23.5 ng/mL, a concentration at 7 h ([2]; continuous subcutaneous infusion 0.25 mg/kg/hour) of 119 ng/mL and a concentration at 7 h ([2]; continuous subcutaneous infusion 1.25 mg/kg/hour) of 541 ng/mL. The “(i) Indicator of degree of improvement in dyskinesia symptom, in words” value (from here on “(i) Indicator of degree of improvement”) ([3]; oral 6.7 mg/kg as free form) was “No improvement”, the “(i) difference in total AIMs score in 3 hours (solvent minus tandospirone)” value (shortened to “(i) difference … (solvent minus tandospirone)”) ([3]; oral 6.7 mg/kg as free form) was −3.1 and the “(ii) Indicator of rebound symptom of dyskinesia, in words” value ([3]; oral 6.7 mg/kg as free form) was “Exacerbating trend”. For the same molecule, the “(ii) difference in total AIMs score in 100 to 180 minutes (solvent minus tandospirone)” value (shortened to “(ii) difference … (solvent minus tandospirone)”) ([3]; oral 6.7 mg/kg as free form) was −3.5, the “(i) Indicator of degree of improvement” value ([3]; oral 20 mg/kg as free form) was “No improvement” and the “(ii) Indicator of rebound symptom of dyskinesia, in words” value ([3]; oral 20 mg/kg as free form) was “Exacerbation”. The “(i) difference … (solvent minus tandospirone)” value [3, 6] was −6.5(FIGS. 7A-7C), the “(ii) difference … (solvent minus tandospirone)” value [3, 6] was −9.1*(FIGS. 7A-7C) and the “(i) difference … (solvent minus tandospirone)” value [3, 7] was −8.6(FIGS. 8A-8L). For the same molecule, the “(ii) difference … (solvent minus tandospirone)” value [3, 7] was −8.5*(FIGS. 8A-8L), the “(i) Indicator of degree of improvement” value ([3]; oral 67 mg/kg as free form) was “No improvement” and the “(i) difference … (solvent minus tandospirone)” value ([3]; oral 67 mg/kg as free form) was 2.9. For the same molecule, the “(ii) Indicator of rebound symptom of dyskinesia, in words” value ([3]; oral 67 mg/kg as free form) was “Exacerbation”, the “(ii) difference … (solvent minus tandospirone)” value ([3]; oral 67 mg/kg as free form) was −10.1* and the “affinity in receptor binding” value (dopamine 2 receptors) was “low affinity”.

From patent publication US11559525B2, “Therapeutic drug for dyskinesia” (Sumitomo Pharma Co., Ltd., priority 2019, dated 2023)
